“Also recorded” adds a separate entry of the source.
Columns and labels:
[1] = system: HepG2 human hepatocarcinoma cells; assay: Rotenone ATP Assay (Complex I Assay); type: cell-based; conditions: for activity in both the BSO Assay and the Rotenone ATP Assay, in words: BSO Assay and Rotenone ATP Assay taken together; for Complex I by-pass activity / restoring ATP production, in words: summary of rotenone assays
Protocol: This assay has been adapted from Haefeli R H, Erb M, Gemperli A C, Robay D, Courdier Fruh I, et al. (2011) NQO1-Dependent Redox Cycling of Idebenone: Effects on Cellular Redox Potential and Energy Levels. PLoS ONE 6(3): e17963. HepG2 human hepatocarcinoma cells were co-incubated with the electron transport chain Complex I toxin rotenone +/− compounds of interest and the corresponding effect on ATP synthesis was measured with a bioluminescent substrate.
In brief, HepG2 cells were plated at 25,000 cells per well in low glucose (1 gram/Liter) DMEM medium+10% fetal calf serum and incubated for 24 hours. The following day, the media was decanted and subsequently replaced with glucose free/serum free DMEM which has been supplemented with 50 micromolar rotenone and compound of interest. Serial dilutions of compound were prepared in 3× dilutions beginning at 25 micromolar. The cells were incubated for 60 minutes in a humidified tissue culture incubator. Following incubation, ATP levels were quantified via bioluminescent assay (Promega […] Glo Assay kit) and readings were captured on a standard microplate reader.
ATP bioluminescence is plotted versus the log of compound of interest and data were used to generate EC50 values. Curve fitting was performed using a sigmoidal dose response curve fit function (GraphPad Prism software).
Robustness of curve fit was assessed as a quality control measure, with an R squared value of at least 0.80 being required for a successful curve fit. Compounds of interest showing an increase in ATP bioluminescence relative to vehicle control were verified in an independent biological replicate of n=3 technical replicates per dose.
This assay is a direct measure of the ability of compounds of interest to restore ATP production under conditions of inhibition of Complex I of the mitochondrial electron transport chain. As the majority of ATP produced via the electron transport chain is thought to derive from Complex I activity, significant impairment in Complex I function has dire biological consequences. Of note, Complex I mutations are thought to drive pathophysiology in multiple mitochondrial diseases, including Leigh syndrome and Leber's Hereditary Optic Neuropathy (LHON), while diminished Complex I activity and the resultant attenuation of ATP production has been shown in neurodegenerative diseases, including Friedreich's Ataxia, Parkinson's Disease and Huntington's Disease.

GM03665 cells = assay: RSL3 Toxicity Assay (RSL3 Assay); type: cell-based, human
Protocol: In brief, GM03665 cells (Coriell Institute) were seeded in 96-well plates (Sarstedt) in DMEM cell culture media containing 10% Fetal Bovine serum and 1% Penicillin-Streptomycin (Pen-Strep) antibiotic mix at the amount of 2×10^4/mL (100 μL or 2×10^3 cells per well). Cells were left to rest overnight at 37° C. in a humidified atmosphere with 5% CO2 to allow attachment of the cells to the culture plate. Test compounds were prepared as DMSO stocks (10 mM) and were serially diluted in cell culture media to obtain 2× working solutions. Cell media was discarded and replaced by 50 μL of test compound solutions or cell media with vehicle for control wells. Within 15 minutes, 2× working solution (4 μM) of 1S,3R-RSL3 (CAS #1219810-16-8, Sigma-Aldrich) (diluted from 5 mM DMSO stock in cell culture media) was added. Final reaction volume was 100 μL and final DMSO concentration in reaction was kept below 0.2% (v/v) and equal in all wells. Final RSL3 concentration was 2 μM and test compound final concentrations in reaction were up to 1000 nM. After 24 hours of incubation cell viability was assessed by MTT test. MTT (Sigma-Aldrich) solution 1 mg/mL in 1×PBS (pH=7,4) was prepared 1 hour before the assay and filtered through Filtropur S 0.2 filters (Sarstedt). Cell media with test compounds was discarded and 100 μL of MTT solution was added to cells. The plates were incubated for 2 hours at +37° C. Thereafter, the MTT solution was removed and 100 μL of isopropanol was added to dissolve sediment. Absorption at 570 and 650 nm was measured using Hidex Sense microplate reader.

HepG2 cells = assay: Rotenone Oxygraph Assay (high-resolution respirometry of intact HepG2 cells); type: cell-based, human; conditions: Table 7; 1 μM rotenone, compound 10 μM
Protocol: The Oxygraph-2 k (O2k, OROBOROS INSTRUMENTS, Austria) was used for measurements of respiration of intact cells. The respirometry was performed in Dulbecco's Modified Eagle Medium (DMEM) high glucose without supplements. All experiments were performed at 37° C.
HepG2 cells (ATCC collection code HB-8065™) were cultured in 10 cm^2 culture dishes in DMEM high glucose medium supplemented with 10% fetal bovine serum (FBS) and 100 units/mL penicillin and 100 μg/mL streptomycin until approximately 90% confluence was reached. Immediately prior to performing the respirometric assay, the cells were washed with media without FBS, trypsinized and resuspended in DMEM high glucose without FBS.
The final concentration of intact cells in the O2k-chamber was 0.5·10^6/mL. After stabilization of respiration, the Complex I inhibitor, rotenone, at 1 μM final concentration was added to inhibit electron flux via Complex I. Then, compound to be tested was added at 10 μM final concentration, and the change in respiration rate of intact cells was monitored.

lipoxygenase-15 enzyme = lipoxygenase-15 enzyme (Glycine max (Soybean) (Glycine hispida), UniProt P08170); assay: Lipoxygenase-15 Assay (LO-15 Assay); conditions: reduced form of compounds
[2] = system: frataxin deficient fibroblasts (GM03665); assay: cells; type: cell-based
Nrf-2 = Nrf-2 Activation Assay (Nrf-2 Assay); type: cell-based, human; conditions: for activation of Nrf-2 pathway, in words: FIG. 7; for Nrf-2 Assay: Table 7, 1 μM compound, 24 hours, qPCR of Nrf-2 responsive genes
Protocol: This assay was developed internally and was designed to determine if the novel test compounds disclosed herein active Nrf-2 and thereby promote resolution of inflammation by the mechanism believed to be responsible for the activity of omaveloxolone.
Briefly, GM03665 Friedreich Ataxia patient fibroblasts were grown in 12 Well Plates (TC Cell+F) (Sarstedt, Numbrecht Germany), at a density of […] in DMEM/F12 (Gibco, ThermoFisher Scientific, Waltham, MA, USA) cell media supplemented with 10% FBS and 1% Pen/Strep. Cells were left to rest overnight at 37° C. in a humidified atmosphere with 5% CO2 to allow attachment of the cells to the culture plate. Before continuing assay visual inspection of each well was done by light microscopy to detect any possible bacterial and fungal contamination. […] After incubation, cell media was removed and total RNA from the cells was isolated using E.Z.N.A.® Total RNA Kit I (Omega Bio-tek, Norcross, Georgia, USA) spin columns, and first-strand cDNA synthesis was carried out using a High Capacity cDNA Reverse Transcription Kit (Applied Biosystems™, Foster City, CA) following the manufacturer's instructions. qPCR analysis of gene expression was performed by mixing SYBR® Green Master Mix (Applied Biosystems™) with synthesized cDNA and forward and reverse primers. […] (60 cycles), and 95° C. for 60 seconds, followed by melt curve analysis at 72-95° C., 0.3° C./sec. The relative expression levels for each gene were calculated with the ΔΔCt method and normalized to the expression of REEP5 and SNRPD3 genes.

SMILES: CC1=C(C)C(=O)C(CC[C@](C)(O)CC/C=C(\C)CC/C=C(\C)CCC=C2COC2)=C(C)C1=O [Compound E, 2-((R,6E,10E)-3-hydroxy-3,7,11-trimethyl-14-(oxetan-3-ylidene)tetradeca-6,10-dien-1-yl)-3,5,6-trimethylcyclohexa-2,5-diene-1,4-dione]
- activity in both the BSO Assay and the Rotenone ATP Assay, in words [1]: possess both activities
- Complex I by-pass activity / restoring ATP production, in words [1]: active
- activity in RSL3 assay (protection from RSL3 induced ferroptosis), in words (GM03665 cells): active; also recorded: able to prevent ferroptotic cell death
- Rotenone Oxygraph Assay % Increase (HepG2 cells): 37.9 +/− 10.7%
- activity in LO-15 assay, in words (lipoxygenase-15 enzyme): outside of the range of the assay
- activity in BSO assay (protection from BSO induced cell death), in words [2]: able to prevent ferroptotic cell death; also recorded: active
- activation of Nrf-2 pathway, in words (Nrf-2): do not activate
- Nrf-2 Assay (Nrf-2): Inactive

SMILES: CC1=C(C)C(=O)C(CC[C@](C)(O)CC/C=C(\C)CCC=C(F)F)=C(C)C1=O [Compound H, (R,E)-2-(11,11-difluoro-3-hydroxy-3,7-dimethylundeca-6,10-dien-1-yl)-3,5,6-trimethylcyclohexa-2,5-diene-1,4-dione]
- Complex I by-pass activity / restoring ATP production, in words [1]: active
- activity in RSL3 assay (protection from RSL3 induced ferroptosis), in words (GM03665 cells): active; also recorded: able to prevent ferroptotic cell death
- Rotenone Oxygraph Assay % Increase (HepG2 cells): 54.3 +/− 13%
- activity in LO-15 assay, in words (lipoxygenase-15 enzyme): active; also recorded: effective inhibitors
- activity in BSO assay (protection from BSO induced cell death), in words [2]: able to prevent ferroptotic cell death; also recorded: active
- activation of Nrf-2 pathway, in words (Nrf-2): do not activate
- Nrf-2 Assay (Nrf-2): Inactive

SMILES: CC1=C(C)C(=O)C(CC[C@@](C)(O)CC/C=C(\C)CCC=C(F)F)=C(C)C1=O [Compound L, (S,E)-2-(11,11-difluoro-3-hydroxy-3,7-dimethylundeca-6,10-dien-1-yl)-3,5,6-trimethylcyclohexa-2,5-diene-1,4-dione]
- activity in both the BSO Assay and the Rotenone ATP Assay, in words [1]: possess both activities
- Complex I by-pass activity / restoring ATP production, in words [1]: active
- activity in RSL3 assay (protection from RSL3 induced ferroptosis), in words (GM03665 cells): active; also recorded: able to prevent ferroptotic cell death
- Rotenone Oxygraph Assay % Increase (HepG2 cells): 58.6 +/− 15.5%
- activity in LO-15 assay, in words (lipoxygenase-15 enzyme): active; also recorded: effective inhibitors
- activity in BSO assay (protection from BSO induced cell death), in words [2]: able to prevent ferroptotic cell death; also recorded: active
- activation of Nrf-2 pathway, in words (Nrf-2): do not activate
- Nrf-2 Assay (Nrf-2): Inactive
